Experiment [1] deals with superficial dorsal horn neurons. The experiment can be described thus: In vivo single-unit recording, topical AITC-evoked firing, spinal superfusion of antagonists. On the set-up: species or system mice. The method, then: (§1) Akiyama T et al., The Journal of neuroscience: the official journal of the Society for Neuroscience 29(20):6691-6699 (2009)]. Anesthesia was induced by sodium pentobarbital (60 mg/kg ip) and maintained by supplemental injections (10-20 mg/kg/hr). […] A tungsten microelectrode recorded single-unit activity in the lumbar spinal cord. A chemical search strategy [Akiyama T et al., Journal of neurophysiology 102(4):2176-2183 2009; […] Following mechanical stimulation, histamine (50 μg) was injected id within the same receptive field at a different location via a separate injection cannula. Following the id histamine injection, we tested the effects of antagonists for the receptors of NK1, GRP, or AMPA/kainate in the same manner as described above for chloroquine. […] Following the AITC application, we tested the effects of the NK-1 receptor antagonist, the AMPA/kainate receptor antagonist, or a combination of both antagonists in the same manner as described above for chloroquine. Action potentials were recorded to a computer and counted using Chart software (AD Instruments, Colorado Springs Colo.) and Spike2 software (CED Instruments). […] Mean peak responses elicited by noxious pinch were compared by one way repeated-measures ANOVA followed by post-hoc Bonferroni test, with p<0.05 set as significant. At the end of each experiment, an electrolytic lesion was made at the spinal cord recording site.

For experiment [2] the test system is unchanged. Nature of the experiment: Baseline activity of superficial dorsal horn neurons before and after antagonist application. Format: in vivo, mice. The settings on record: ± SEM. The method, then:
The single-unit recording from the lumbar spinal cord was conducted as previously detailed [Akiyama T et al., Journal of neurophysiology 102(4):2176-2183 (2009); Akiyama T et al., The Journal of neuroscience: the official journal of the Society for Neuroscience 29(20):6691-6699 (2009)]. Anesthesia was induced by sodium pentobarbital (60 mg/kg ip) and maintained by supplemental injections (10-20 mg/kg/hr). A gravity-driven perfusion system allowed artificial cerebrospinal fluid (Krebs: 117 mM NaCl, 3.6 mM KCl, 2.5 mM CaCl2, 1.2 mM MgCl2, 1.2 mM NaH2PO4, 25 mM NaHCO3 and 11 mM glucose which was equilibrated with 95% 02 and 5% CO2 at 37° C.) to be superfused continually over the exposed lumbosacral spinal cord [Akiyama T et al., PloS one 6(7):e22665 (2011)]. A tungsten microelectrode recorded single-unit activity in the lumbar spinal cord. A chemical search strategy [Akiyama T et al., Journal of neurophysiology 102(4):2176-2183 2009; Akiyama T et al., The Journal of neuroscience: the official journal of the Society for Neuroscience 29(20):6691-6699 (2009)] was used to identify and isolate chloroquine-responsive units. Our search strategy was intended to maximize the chance of isolating a chloroquine-responsive neuron; it was assumed that such neurons either gave rise to ascending projections, or served as interneurons in segmental scratch-reflex circuitry, and no attempt was presently made to distinguish between these possibilities.
There was no significant effect of any of the antagonists on the baseline activity of superficial dorsal horn neurons that were subsequently show to respond to pruritogens. […] Values prior to, and after administration of each antagonist individually or in combination, are as follows. NK-1 antagonist L-733060: pre-application 0.88 Hz±0.23 (SEM), post-antagonist 0.72 Hz±0.19 (n=10). GRPR antagonist RC-3095: pre-application 0.54 Hz±0.54, post-antagonist: 0.53 Hz±0.53 (n=4). CNQX: pre-application 0.53 Hz±0.14, post-antagonist 0.64 Hz±0.21 (n=22). CNQX+L-733060: pre-application 0.52 Hz±0.17, post-antagonists 0.43 Hz±0.11 (n=26). CNQX+L-733060+RC-3095: pre-application 0.14 Hz±0.06, post-antagonists 0.17 Hz±0.06 (n=9).

The test system is the same in experiment [3]. The experiment can be described thus: In vivo single-unit recording, id histamine-evoked firing, spinal superfusion of antagonists. On the set-up: species or system mice. As for the experimental part: as §1
For experiment [4], the system named is histamine-evoked scratching. The experiment can be described thus: Histamine-evoked scratching behavior after intrathecal antagonists. As to conditions: intrathecal CNQX 20 nmol, 5 min before id histamine 271 nmol. Format: in vivo, mice. An excerpt: The fur on the rostral back was shaved and mice were habituated to the Plexiglas recording arena one week prior to testing. For intrathecal injections, either vehicle (saline), the GRP receptor antagonist RC-3095 (0.3 nmol; Sigma-Aldrich, St. Louis Mo.), the NK-1 antagonist L-733060 (22.7 nmol; Tocris Bioscience, Minneapolis, Minn.), the AMPA/kainate antagonist CNQX (20 nmol; Tocris Bioscience), a combination of CNQX (20 nmol) and L-733060 (22.7 nmol), or a combination of RC-3095 (0.3 nmol), CNQX (20 nmol) and L-733060 (22.7 nmol), was administered by lumbar puncture, followed 5 minutes later by id injection (10 μl) of either chloroquine (193 nmol; Sigma-Aldrich) or histamine (271 nmol; Sigma-Aldrich). Microinjections were made id in the nape of the neck using a 30 G needle attached to a Hamilton microsyringe by PE-50 tubing. Immediately after the id injection the mouse was placed into the arena and videotaped from above for 30 min. Generally 3-4 mice were injected and videotaped simultaneously. Immediately after commencing videotaping all investigators left the room.
Videotapes were reviewed by investigators blinded to the treatment, and the number of scratch bouts was counted at 5-minute intervals. […] Hind paw movements directed away from the injection site (e.g., ear-scratching) and grooming movements were not counted. […]

Entries after “also recorded” stand apart in the source; their conditions may differ.

In the case of `N#Cc1cc2[nH]c(=O)c(=O)[nH]c2cc1[N+](=O)[O-]` [CNQX], the “AITC-evoked firing, effect of spinal superfusion” value in experiment [1] (topical AITC 75%) is listed as “significantly reduced”. Further, in experiment [1] (topical AITC-evoked firing, superfusion 1 min, L-733060 200 μM, CNQX 100 μM), the “Percentages of dorsal horn units that exhibited a decrease of 70% or more in firing rate following spinal superfusion of antagonists” value was 62% (8/15). Moreover, the “baseline neuronal firing rate, post-antagonist” value in experiment [2] (averaged over 1 min following antagonist application) is on record as 0.64 Hz. For the same compound, the “baseline neuronal firing rate, pre-application” value in experiment [2] (averaged over 1 min prior to antagonist application) was determined as 0.53 Hz. Also, the “histamine-evoked response of NS units” value in experiment [3] (NS units, vs vehicle) is “significantly reduced”. The “histamine-evoked response of WDR units” value in experiment [3] (WDR units, vs vehicle) is given as “significantly reduced”. In addition, the “histamine-evoked firing, effect of spinal superfusion” value in experiment [3] (all units) was “significantly attenuated histamine-evoked firing to a level not different from that elicited by id injection of vehicle (saline); also recorded: almost completely abolished histamine-evoked firing”. Besides, the “histamine-evoked scratching (scratch bouts/30 minutes)” value in experiment [4] is reported as “significantly decreased; also recorded: significantly reduced; also recorded: prevented histamine-evoked scratching behavior”.

(Values after patent US20180221435A1, “ITCH TREATMENT USING A COMBINATION OF NEUROKININ-1, GASTRIN RELEASING PEPTIDE, AND GLUTAMATE RECEPTOR ANTAGONISTS” (The Regents of the University of California, priority 2013, published 2018).)
